≈ marks a conversion by molar mass, not a printed value.
Assays:
[1] = tested on: insect bites; settings: DEET at 100%; cited from earlier work
[2] = cited from earlier work; for δD: Hansen dispersion value; for δH: Hansen h-bonding value; for δP: Hansen polar value
[3] = Water solubility of core solvents; format: physicochemical

Row | solubility [3] [mg/mL] | Compound | hours of protection against insect bites [1] | δD [2] | δH [2] | δP [2]
1 | – | CCN(CC)C(=O)c1cccc(C)c1 [DEET, N,N-Diethyl-meta-toluamide] | up to 12 hours | – | – | –
2 | < 0.0001 | CCCCCCCCCCCCCC(=O)OC(C)C [isopropyl myristate] | – | 16 | 2.7 | 2.1
3 | 21.5 (≈ 98.6 mM) | CC(=O)OCC(COC(C)=O)OC(C)=O [triacetin] | – | 16.4 | 9.6 | 5.7

Reference: patent US20190184364A1, “FRAGRANCE COMPOSITIONS CONTAINING MICROCAPSULES” (INTERNATIONAL FLAVORS & FRAGRANCES INC., priority 2016, published 2019)
